# Where “and” joins values, the source holds several entries; their conditions need not be identical. Equal entries are not always repeated.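 96-well plates; 48 h exposure; 5 concentrations. Endpoints by linear interpolation between flanking doses. Not reached: highest tested concentration assigned. GI50: concentration for 50% inhibition of growth. TGI denotes the concentration required for complete inhibition of growth.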 Where a SMILES comes first, the peptide text is derived from it. The star is where a group is joined. Cbz = O=C(OCc1ccccc1)*
# Test system: MCF7 breast
# Assay: NCI anticancer screen, dose series, 48 h
row,SMILES,TGI [µM]
1,O=C1/C(=C\c2cccc(Oc3ccccc3)c2)S(=O)(=O)C(c2ccccc2)N1c1cccc(Cl)c1 (configuration not stated),> 100
2,N#Cc1cc2c(cc1Cl)Sc1nnc(Nc3ccccc3)n1S2(=O)=O,> 40.4
3,COCn1cnc2c(=O)nc(SC)n(-c3ccccc3)c21,> 100

# Test system: RXF 393 renal
# Assay: NCI anticancer screen, dose series, 48 h
row,SMILES,TGI [µM]
1,COc1ccc(CNc2nc(NC3CCCCC3)nc(NC3CCCCC3)n2)cc1,7.94
2,CN(C)CCCNc1ccc2ncn3c4ccc(O)cc4c(=O)c1c23,2.91
3,S=C1NCCN1C(=S)Nc1ccccc1,58
4,CC1CC(Nc2ccc(Br)cc2)N(C(=O)c2ccc(Br)cc2)O1 (configuration not stated),> 10
5,OC(C/C=N/N=C/CC(O)(C(F)(F)Cl)C(F)(F)Cl)(C(F)(F)Cl)C(F)(F)Cl,> 10
6,COc1cc2c(cc1O)NC(=O)[C@@H]1CCCN1C2=O,> 100
7,O=C1C=C(Nc2ccc(S(=O)(=O)Nc3nccs3)cc2)c2ccccc2C1=O,> 100
8,C=CC1(CC[C@]2(c3ccc(OC)c(OC)c3)C=[N+]([O-])O[C@H](O[C@@H]3CCCC[C@H]3C(C)(C)c3ccccc3)C2)OCC(C)(C)CO1,> 48.4
9,Oc1c(Br)ccc2cccnc12,32.4
10,O=c1[nH]c2nc3ccccc3c(=O)n2/c1=C/c1cccs1,> 100
11,CC(=O)SC(C[N+](=O)[O-])c1ccc2c(c1)OCO2 (configuration not stated),3.41
12,Cc1ccc(CSC(N)=Nc2ccccc2)cc1C,33.4
13,C=C1CCCCCCCCC/C=C/1SCCCSC,> 100
14,NCCCN(CCCN)CCc1cn(C(=O)c2ccccc2)cn1,8.89
15,Cc1[nH]n(-c2nc(O)c(-c3ccccc3)c(=O)[nH]2)c(=O)c1CCO,> 100
16,CC(NC(=O)Cc1ccccc1)NC(=O)C(C)C(=O)NCc1ccccc1 (configuration not stated),> 100
17,CCOC(=O)CCC(NC(=O)C(Cc1ccccc1)NC(=O)OCc1ccccc1)C(=O)OCC (stereo not drawn) (Cbz-Phe-Glu(OEt)-OEt; configuration not given here),32.1
18,O=C1C(Br)=CC2(C=C1Br)CCNC1=C2C(=O)c2ncccc2C1=O,2.65
19,CC(=O)OCC1OC(n2c(C)c(N=Nc3ccc(Cl)cc3)c(C)c(C#N)c2=S)C(OC(C)=O)C(OC(C)=O)C1OC(C)=O (configuration not stated),40.7

row,SMILES,TGI [µM]
1,CCCCC1Cc2cc(O)ccc2-c2nc3cc(O)ccc3n21 (configuration not stated) (tested in a mixture with another compound),35.6
2,CC(NC(=O)c1c(O)[nH]c(=S)[nH]c1=O)c1ccc([N+](=O)[O-])cc1 (configuration not stated),> 100
3,CC(=O)c1c(N=[N+]=[N-])c2cccc3c2n(c1=O)CCC3,45.4
4,Cn1nnnc1SC(F)(F)c1nc2ccccc2o1,> 100
5,CCCCCCCCCCCC(=O)OC[C@@H](C[As](=O)(O)O)OC(=O)CCCCCCCCCCC,6.99
6,C/C=C\C(CC(=O)NCC(=O)c1c[nH]c2ccccc12)CC(=O)OC (configuration not stated),> 100
7,CC(=O)c1ccc2c(c1)C(=O)c1sc(C(C)=O)cc1C2=O,4.7
8,O=[N+]([O-])c1c(F)c(F)c2c(c1F)N(CCCCCl)c1ccccc1S2,27.4
9,Cc1ccnc2c1C(=O)C1=C(OC(C)(C)CC1O)C2=O (configuration not stated),23
10,CN1CCc2c(sc3[nH]c(=S)[nH]c(=S)c23)C1,> 100
11,CCOC(=O)c1c(OCC)[nH]c(=O)c(C(c2cccs2)c2c(O)c(C(=O)OCC)c(OCC)[nH]c2=O)c1O,19
12,CC(=O)Nc1c(C(=N)C#N)ncn1CCO,> 100
13,O=P1(Cc2ccccc2)N(Cc2ccccc2)[C@@H]2CCCC[C@H]2N1Cc1ccccc1,26.9
14,CN1CCCOC(c2ccc(Cl)cc2)O1 (configuration not stated),> 100
15,Cc1c2ccc3ccccc3c2c[n+]2ccccc12,> 84.4
16,O=C1/C(=C\c2cccc(Oc3ccccc3)c2)S(=O)(=O)C(c2ccccc2)N1c1cccc(Cl)c1 (configuration not stated),> 100
17,N#Cc1cc2c(cc1Cl)Sc1nnc(Nc3ccccc3)n1S2(=O)=O,4.48
18,COCn1cnc2c(=O)nc(SC)n(-c3ccccc3)c21,> 100

# Test system: CAKI-1 renal
# Assay: NCI anticancer screen, dose series, 48 h
row,SMILES,TGI [µM]
1,COc1ccc(CNc2nc(NC3CCCCC3)nc(NC3CCCCC3)n2)cc1,> 100
2,CN(C)CCCNc1ccc2ncn3c4ccc(O)cc4c(=O)c1c23,1.59
3,S=C1NCCN1C(=S)Nc1ccccc1,> 100
4,CC1CC(Nc2ccc(Br)cc2)N(C(=O)c2ccc(Br)cc2)O1 (configuration not stated),> 10
5,OC(C/C=N/N=C/CC(O)(C(F)(F)Cl)C(F)(F)Cl)(C(F)(F)Cl)C(F)(F)Cl,> 10
6,COc1cc2c(cc1O)NC(=O)[C@@H]1CCCN1C2=O,> 100
7,O=C1C=C(Nc2ccc(S(=O)(=O)Nc3nccs3)cc2)c2ccccc2C1=O,82.9
8,C=CC1(CC[C@]2(c3ccc(OC)c(OC)c3)C=[N+]([O-])O[C@H](O[C@@H]3CCCC[C@H]3C(C)(C)c3ccccc3)C2)OCC(C)(C)CO1,> 28
9,Oc1c(Br)ccc2cccnc12,60.3
10,O=c1[nH]c2nc3ccccc3c(=O)n2/c1=C/c1cccs1,> 100
11,CC(=O)SC(C[N+](=O)[O-])c1ccc2c(c1)OCO2 (configuration not stated),18.6
12,Cc1ccc(CSC(N)=Nc2ccccc2)cc1C,60.9
13,C=C1CCCCCCCCC/C=C/1SCCCSC,> 100
14,NCCCN(CCCN)CCc1cn(C(=O)c2ccccc2)cn1,16.1
15,Cc1[nH]n(-c2nc(O)c(-c3ccccc3)c(=O)[nH]2)c(=O)c1CCO,> 100
16,CC(NC(=O)Cc1ccccc1)NC(=O)C(C)C(=O)NCc1ccccc1 (configuration not stated),> 100
17,CCOC(=O)CCC(NC(=O)C(Cc1ccccc1)NC(=O)OCc1ccccc1)C(=O)OCC (stereo not drawn) (Cbz-Phe-Glu(OEt)-OEt; configuration not given here),30.4
18,O=C1C(Br)=CC2(C=C1Br)CCNC1=C2C(=O)c2ncccc2C1=O,3.14
19,CC(=O)OCC1OC(n2c(C)c(N=Nc3ccc(Cl)cc3)c(C)c(C#N)c2=S)C(OC(C)=O)C(OC(C)=O)C1OC(C)=O (configuration not stated),> 100

row,SMILES,TGI [µM]
1,CCCCC1Cc2cc(O)ccc2-c2nc3cc(O)ccc3n21 (configuration not stated) (tested in a mixture with another compound),89
2,CC(NC(=O)c1c(O)[nH]c(=S)[nH]c1=O)c1ccc([N+](=O)[O-])cc1 (configuration not stated),> 100
3,CC(=O)c1c(N=[N+]=[N-])c2cccc3c2n(c1=O)CCC3,57.8
4,Cn1nnnc1SC(F)(F)c1nc2ccccc2o1,> 100
5,CCCCCCCCCCCC(=O)OC[C@@H](C[As](=O)(O)O)OC(=O)CCCCCCCCCCC,23.8
6,C/C=C\C(CC(=O)NCC(=O)c1c[nH]c2ccccc12)CC(=O)OC (configuration not stated),> 100
7,CC(=O)c1ccc2c(c1)C(=O)c1sc(C(C)=O)cc1C2=O,4.48
8,O=[N+]([O-])c1c(F)c(F)c2c(c1F)N(CCCCCl)c1ccccc1S2,19.3
9,Cc1ccnc2c1C(=O)C1=C(OC(C)(C)CC1O)C2=O (configuration not stated),19
10,CN1CCc2c(sc3[nH]c(=S)[nH]c(=S)c23)C1,> 100
11,CCOC(=O)c1c(OCC)[nH]c(=O)c(C(c2cccs2)c2c(O)c(C(=O)OCC)c(OCC)[nH]c2=O)c1O,65.4
12,CC(=O)Nc1c(C(=N)C#N)ncn1CCO,> 100
13,O=P1(Cc2ccccc2)N(Cc2ccccc2)[C@@H]2CCCC[C@H]2N1Cc1ccccc1,23.7
14,CN1CCCOC(c2ccc(Cl)cc2)O1 (configuration not stated),> 100
15,Cc1c2ccc3ccccc3c2c[n+]2ccccc12,> 100
16,O=C1/C(=C\c2cccc(Oc3ccccc3)c2)S(=O)(=O)C(c2ccccc2)N1c1cccc(Cl)c1 (configuration not stated),> 100
17,N#Cc1cc2c(cc1Cl)Sc1nnc(Nc3ccccc3)n1S2(=O)=O,3.34
18,COCn1cnc2c(=O)nc(SC)n(-c3ccccc3)c21,> 100

# Test system: SNB-19 CNS
# Assay: NCI anticancer screen, dose series, 48 h
SMILES,TGI,GI50 [µM]
COc1ccc(CNc2nc(NC3CCCCC3)nc(NC3CCCCC3)n2)cc1,> 100 µM,–
CN(C)CCCNc1ccc2ncn3c4ccc(O)cc4c(=O)c1c23,20.1 µM,–
CC1CC(Nc2ccc(Br)cc2)N(C(=O)c2ccc(Br)cc2)O1 (configuration not stated),> 10 µM,–
OC(C/C=N/N=C/CC(O)(C(F)(F)Cl)C(F)(F)Cl)(C(F)(F)Cl)C(F)(F)Cl,> 10 µM,–
COc1cc2c(cc1O)NC(=O)[C@@H]1CCCN1C2=O,> 100 µM,–
O=C1C=C(Nc2ccc(S(=O)(=O)Nc3nccs3)cc2)c2ccccc2C1=O,86.3 µM,–
C=CC1(CC[C@]2(c3ccc(OC)c(OC)c3)C=[N+]([O-])O[C@H](O[C@@H]3CCCC[C@H]3C(C)(C)c3ccccc3)C2)OCC(C)(C)CO1,> 54.1 µM,–
Oc1c(Br)ccc2cccnc12,> 100 µM,–
O=c1[nH]c2nc3ccccc3c(=O)n2/c1=C/c1cccs1,> 100 µM,–
CC(=O)SC(C[N+](=O)[O-])c1ccc2c(c1)OCO2 (configuration not stated),21.5 µM,–
Cc1ccc(CSC(N)=Nc2ccccc2)cc1C,65.9 µM,–
C=C1CCCCCCCCC/C=C/1SCCCSC,> 100 µM,–
NCCCN(CCCN)CCc1cn(C(=O)c2ccccc2)cn1,33.6 µM,–
Cc1[nH]n(-c2nc(O)c(-c3ccccc3)c(=O)[nH]2)c(=O)c1CCO,> 100 µM,–
CC(NC(=O)Cc1ccccc1)NC(=O)C(C)C(=O)NCc1ccccc1 (configuration not stated),58.8 µM,–
CCOC(=O)CCC(NC(=O)C(Cc1ccccc1)NC(=O)OCc1ccccc1)C(=O)OCC (stereo not drawn) (Cbz-Phe-Glu(OEt)-OEt; configuration not given here),36.7 µM,–
O=C1C(Br)=CC2(C=C1Br)CCNC1=C2C(=O)c2ncccc2C1=O,2.77 µM,–

SMILES,TGI,GI50 [µM]
CC(=O)OCC1OC(n2c(C)c(N=Nc3ccc(Cl)cc3)c(C)c(C#N)c2=S)C(OC(C)=O)C(OC(C)=O)C1OC(C)=O (configuration not stated),> 100 µM,–
CCCCC1Cc2cc(O)ccc2-c2nc3cc(O)ccc3n21 (configuration not stated) (tested in a mixture with another compound),26.3 µM,–
CC(NC(=O)c1c(O)[nH]c(=S)[nH]c1=O)c1ccc([N+](=O)[O-])cc1 (configuration not stated),> 100 µM,–
CC(=O)c1c(N=[N+]=[N-])c2cccc3c2n(c1=O)CCC3,> 100 µM,–
CCCCCCCCCCCC(=O)OC[C@@H](C[As](=O)(O)O)OC(=O)CCCCCCCCCCC,10.8 µM,–
C/C=C\C(CC(=O)NCC(=O)c1c[nH]c2ccccc12)CC(=O)OC (configuration not stated),> 100 µM,–
CC(=O)c1ccc2c(c1)C(=O)c1sc(C(C)=O)cc1C2=O,1.66 µM and 2.61 µM,1.34
O=[N+]([O-])c1c(F)c(F)c2c(c1F)N(CCCCCl)c1ccccc1S2,19.5 µM,–
Cc1ccnc2c1C(=O)C1=C(OC(C)(C)CC1O)C2=O (configuration not stated),21.1 µM,–
CN1CCc2c(sc3[nH]c(=S)[nH]c(=S)c23)C1,> 100 µM,–
CCOC(=O)c1c(OCC)[nH]c(=O)c(C(c2cccs2)c2c(O)c(C(=O)OCC)c(OCC)[nH]c2=O)c1O,39.8 µM,–
CC(=O)Nc1c(C(=N)C#N)ncn1CCO,> 100 µM,–
O=P1(Cc2ccccc2)N(Cc2ccccc2)[C@@H]2CCCC[C@H]2N1Cc1ccccc1,24.2 µM,–
CN1CCCOC(c2ccc(Cl)cc2)O1 (configuration not stated),> 100 µM,–
Cc1c2ccc3ccccc3c2c[n+]2ccccc12,23.1 µM,–
O=C1/C(=C\c2cccc(Oc3ccccc3)c2)S(=O)(=O)C(c2ccccc2)N1c1cccc(Cl)c1 (configuration not stated),> 100 µM,–
N#Cc1cc2c(cc1Cl)Sc1nnc(Nc3ccccc3)n1S2(=O)=O,6.66 µM,–

# From PubChem BioAssay (NCI)
